According to article PMC11374673, “Discovery of isoquinoline sulfonamides as allosteric gyrase inhibitors with activity against fluoroquinolone-resistant bacteria” (Nature Chemistry, 2024):
pIC50: −log10 of the molar value. Where “and” joins values, the source holds several entries; their conditions need not be identical. Identical values can stand only once.

What was measured:
P. aeruginosa gyrase = biological target: T1, P. aeruginosa gyrase (Pseudomonas aeruginosa, UniProt P48372); assay: Gyrase supercoiling inhibition; type: biochemical
T1 construct: purchased Inspiralis Ltd. PAG1001
Procedure: (§1) Of this stock solution, 27 µl was aliquoted for each reaction in 1.5 ml Eppendorf tubes and supplemented with 0.6 µl of the appropriate compound dilution or corresponding solvent with a final DMSO concentration of 2%. The reactions were started with 3 µl of enzyme (1 U for WT gyrase retrieved from Inspiralis Limited or 25–30 nM gyrase variants purified in house) in dilution buffer (50 mM Tris–HCl (pH 7.5), 100 mM KCl, 2 mM DTT, 1 mM EDTA and 50% (wt/vol) glycerol) for a final volume of 30 µl. Reactions were run at 37 °C for 30 min and stopped with the addition of 30 µl STEB buffer (40% (wt/vol) sucrose, 100 mM Tris–HCl pH 8, 100 mM EDTA, 0.5 mg ml^−1 bromophenol blue) and 30 µl of a chloroform:isoamyl alcohol solution (24:1 vol/vol). After brief vortexing and centrifugation at 2,300g for 1 min, 20 µl of the aqueous phase was loaded onto 1% (wt/vol) agarose gels in TAE (Tris–acetate […]) gel. The gels were run at 85 V for 2 h followed by staining (15 min) in 1 µg ml^−1 ethidium bromide and destaining (5–10 min) in water. DNA was visualized (602/50, UV Trans, auto optimal exposure) with a ChemiDoc MP (Bio-Rad Laboratories Inc., equipped with ImageLab Touch Software v2.0.0.27) and the percentage of supercoiled DNA relative to the total amount material per lane was determined with ImageLab 6.1 software (Bio-Rad Laboratories Inc.) or ImageJ[47] software. […]

sheep blood cells = assay: Haemolytic activity; type: cell-based; conditions: 20 h incubation with sheep blood cells
Procedure: Whole defibrinated sheep blood (10631715, Fisher Scientific) was centrifuged (400g) for 15 min at 4 °C. The supernatant was discarded and the remaining blood cell suspension was mixed with PBS and centrifuged (400g) for 15 min at 4 °C. Washing cycles were repeated at least three times, until the supernatant was clear after centrifugation. The packed blood cells were diluted 25-fold in PBS with 0.002% polysorbate 80. Test compounds were serially diluted twofold in U-bottom polypropylene 96-well microtitre plates in PBS with 0.002% polysorbate 80 (75 µl). An equal volume (75 µl) of the blood cell suspension was added to all wells. […]. The well plates were incubated for 20 h at 37 °C with continuous shaking (500 r.p.m.). After incubation, plates were centrifuged (800g) for 5 min, and 25 µl of supernatant was transferred to a clear UV-star flat-bottom polystyrene 96-well plate containing 100 µl ultrapure water per well. Absorption was measured at 415 nm with a Spark multimode microplate reader (Tecan). Data were corrected for the background response of 0.5% DMSO in the presence of cells with no antibiotic and normalized using the absorbance of 0.1% Triton X-100 with blood cells, as 100% haemolytic activity.

E. coli W3110 = assay: Time-kill assay
Procedure: From glycerol stocks, bacterial strains were cultured on blood agar plates by overnight incubation at 37 °C. Subsequently, a single colony was cultured in TSB overnight at 37 °C. The culture was diluted 100-fold in fresh CAMHB and grown until early exponential phase (OD600 of 0.25) followed by 100-fold dilution in media. The culture was split in separate culture tubes containing 2 ml. […] The supernatant was discarded and pellets were washed once with filter-sterilized PBS, then resuspended in an equal volume of fresh buffer and samples were tenfold serially diluted until a 10^5 dilution. Then, 10 µl of the appropriate dilutions were inoculated on LB agar plates in technical duplicates, subsequently allowed to evaporate and incubated at 37 °C for 18 h. The colonies were counted and used to calculate the colony forming unit (c.f.u.) per ml remaining in the original culture by taking the dilution factors into account. The experiment was performed in biological duplicates.

(UniProt Q2FCU6) = assay: Gyrase supercoiling inhibition; type: biochemical, Acinetobacter baumannii; conditions: read-out: IC50 supercoiling, A. baumannii gyrase
Procedure: as §1

T1 sequence (P48372 whole entry): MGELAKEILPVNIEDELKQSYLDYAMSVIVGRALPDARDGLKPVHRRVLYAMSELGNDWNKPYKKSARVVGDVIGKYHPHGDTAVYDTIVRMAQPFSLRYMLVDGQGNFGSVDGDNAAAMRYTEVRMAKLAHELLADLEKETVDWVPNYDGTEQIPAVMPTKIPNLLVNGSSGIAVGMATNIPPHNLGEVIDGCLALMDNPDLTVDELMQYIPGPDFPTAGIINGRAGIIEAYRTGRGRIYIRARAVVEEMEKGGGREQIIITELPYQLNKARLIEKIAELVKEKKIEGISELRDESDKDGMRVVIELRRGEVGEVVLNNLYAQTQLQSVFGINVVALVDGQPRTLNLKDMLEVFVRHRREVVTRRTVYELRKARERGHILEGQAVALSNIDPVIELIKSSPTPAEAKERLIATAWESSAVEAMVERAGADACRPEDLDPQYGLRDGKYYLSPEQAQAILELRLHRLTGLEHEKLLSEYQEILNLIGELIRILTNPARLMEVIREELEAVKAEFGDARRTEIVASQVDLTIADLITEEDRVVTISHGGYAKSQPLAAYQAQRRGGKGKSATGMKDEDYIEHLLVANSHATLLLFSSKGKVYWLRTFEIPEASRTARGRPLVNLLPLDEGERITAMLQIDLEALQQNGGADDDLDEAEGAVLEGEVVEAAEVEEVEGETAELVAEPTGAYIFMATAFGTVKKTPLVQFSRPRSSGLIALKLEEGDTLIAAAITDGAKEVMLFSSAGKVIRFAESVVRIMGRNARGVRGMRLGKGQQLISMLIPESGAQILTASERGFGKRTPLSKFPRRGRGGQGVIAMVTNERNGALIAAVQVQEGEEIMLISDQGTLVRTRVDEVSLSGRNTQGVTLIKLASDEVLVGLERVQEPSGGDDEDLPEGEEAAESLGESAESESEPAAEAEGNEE
T1 sequence (Q9I7C2 whole entry, further chain): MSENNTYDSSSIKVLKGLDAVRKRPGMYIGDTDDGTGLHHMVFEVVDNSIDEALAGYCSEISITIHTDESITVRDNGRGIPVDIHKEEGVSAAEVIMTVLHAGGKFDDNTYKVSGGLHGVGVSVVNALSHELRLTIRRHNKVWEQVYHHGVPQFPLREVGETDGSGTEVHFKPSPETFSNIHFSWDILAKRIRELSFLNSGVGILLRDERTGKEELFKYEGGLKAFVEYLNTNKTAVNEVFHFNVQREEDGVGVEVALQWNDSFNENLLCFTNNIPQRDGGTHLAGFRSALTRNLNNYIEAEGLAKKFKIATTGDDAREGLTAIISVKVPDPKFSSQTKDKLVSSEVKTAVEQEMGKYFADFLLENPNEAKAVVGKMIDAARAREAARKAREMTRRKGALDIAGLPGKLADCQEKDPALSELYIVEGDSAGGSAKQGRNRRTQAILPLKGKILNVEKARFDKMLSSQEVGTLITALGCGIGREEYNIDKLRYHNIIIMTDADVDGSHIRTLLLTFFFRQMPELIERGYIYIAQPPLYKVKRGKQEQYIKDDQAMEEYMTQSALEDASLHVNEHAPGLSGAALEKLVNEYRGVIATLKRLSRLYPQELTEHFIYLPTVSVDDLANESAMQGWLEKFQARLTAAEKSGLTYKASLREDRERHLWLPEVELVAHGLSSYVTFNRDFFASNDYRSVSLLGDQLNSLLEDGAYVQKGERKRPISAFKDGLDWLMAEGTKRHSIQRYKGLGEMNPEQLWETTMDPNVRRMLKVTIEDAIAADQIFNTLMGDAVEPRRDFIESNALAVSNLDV

O=S(=O)(NC[C@@H]1CC[C@H](c2ccc(-c3cccnc3)cc2)N1)c1cccc2cnccc12 [LEI-800]
pIC50 (P. aeruginosa gyrase): 7.02 | haemolytic activity (sheep blood cells): no haemolytic activity | time kill kinetics, bacterial count (E. coli W3110; 4xMIC, 0.5 h, n = 1 and n = 2): 5.021 and 5.23 | time kill kinetics, bacterial count (E. coli W3110; 4xMIC, 1 h): 5.061 and 4.929 | time kill kinetics, bacterial count (E. coli W3110; 4xMIC, 2 h): 5.041 and 5.176 | time kill kinetics, bacterial count (E. coli W3110; 4xMIC, 4 h): 3.061 and 3.243 | time kill kinetics, bacterial count (E. coli W3110; 4xMIC, 8 h): 2 and 2.778 | time kill kinetics, bacterial count (E. coli W3110; 4xMIC, 24 h): 5.176 and 4.875 | time kill kinetics, bacterial count (E. coli W3110; 8xMIC, 0.5 h): 5.243 and 5.021 | time kill kinetics, bacterial count (E. coli W3110; 8xMIC, 1 h): 4.431 and 4.732 | time kill kinetics, bacterial count (E. coli W3110; 8xMIC, 2 h): 4.903 and 5 | time kill kinetics, bacterial count (E. coli W3110; 8xMIC, 4 h): 3.13 and 3.079 | time kill kinetics, bacterial count (E. coli W3110; 8xMIC, 8 h): 2.301 and 2 | time kill kinetics, bacterial count (E. coli W3110; 8xMIC, 24 h): 1.99 | bactericidal activity (E. coli W3110; at higher concentrations): bactericidal | pIC50 ((UniProt Q2FCU6)): 6.99
